Measured values as given in US6294568A, “5-arylpyrrole derivatives” (priority 1997, dated 2001).

Key:
Brewer's Yeast Fever = assay: Antipyretic Action Test With Respect To Brewer's Yeast Fever; assay type: in vivo, rats
Method: The antipyretic action was measured as described in the following. A sensor was inserted into the rectum of each rats and the body temperature of one hour after the insertion was recorded as the basal body temperature. The rats were injected subcutaneously with 2 ml/body of 20% brewer's yeast at the region of back and, 18 hours after the injection, the intrafebrile body temperatures were measured. Rats who had shown not less than 0.75° C. of body temperature elevation were selected to whom the test samples was administered orally. The body temperatures of the selected rats were measured every one hour for the following 5 hours. The dosage of each of the test samples was 10 mg/kg.

[1] = test system: pain threshold of brewer's yeast inflamed hind paw; assay: Analgesic Action Test (Randall et al.); assay type: in vivo, SD rats; conditions: 3 mg/kg
Method: SD rats (6 rats per group) fasted overnight were employed for the test. After the measurement of pain threshold values of the left and right hind paws twice using an analgesimeter, the rats were injected subcutaneously with 0.1 ml of 20% brewer's yeast solution at the plantar area of the right hind paw to elicit inflammation. Two hours after the elicitation of inflammation, the pain threshold values of the left and right hind paws were measured and, immediately after the measurement, the test samples were administered orally to the rats. Three hours after the administration, the pain threshold values of the left and right hind paws were measured. […] The dosage amount of each of the test samples was 3 mg/kg.
Pain threshold value rising rate (%)=((pain threshold value of 3 hours after drug administration-pain threshold value of 2 hours after yeast administration)/(pain threshold value before yeast administration-pain threshold value of 2 hours after yeast administration))×100
Pain threshold value fluctuation rate (%)=(1 -(pain threshold value of 3 hours after drug administration/pain threshold value of 2 hours after […]

adjuvant arthritis = assay: Rat Adjuvant Arthritis Test; assay type: in vivo, SD rats; conditions: 3 mg/kg, oral
Method: SD rats were injected subcutaneously with […] liquid paraffin/rat of H-37RA strain in the plantar area of the right hind paw. Only liquid paraffin (0.05 ml) was administered to control groups in the same manner. 21 days after the administration, rats showing the evidence of arthritis were selected and divided into groups having equal mean left and right hind paw volumes, and also having equal arthritis scores. From the date of the grouping, the test samples were administered orally to the rats once daily for 7 days (only the solvent was administered to the negative and positive control groups). The degree of the arthritis was quantitatively evaluated by measuring the volumes of the left and right hind paws by using a volume meter (manufactured by Muromachi Kikai) and by scoring the degree of arthritis by macroscopic observation as illustrated in Table 2. According to the scoring criteria in Table 2, 15 is a perfect score.
The dosage of each of the test samples was 3 mg/kg.

carrageenan footedema = assay: Carrageenan Footedema Suppression Test; assay type: in vivo, SD rats; conditions: oral; paw volume three hours after carrageenan administration
Method: The carrageenin footedema suppression test was conducted according to the method of Winter et al. (J. Pharm. Exp. Ther., Vol.141, 369 (1963)). The test samples suspended in Tween 80 were administered orally to SD rats (6 rats per 1 group) in an amount of 1 ml per 100 g of the body weight, while only the solvent was administered in the same manner as above as a control. One hour after the administration, 1% carrageenan physiological saline was injected subcutaneously to the rats in the plantar area of the right hind paw. Three hours after the carrageenan administration, the paw volumes were measured and the edematization rate (%) was calculated with Formula 1 and then edematization suppression rate (%) was calculated with Formula 2.
Edematization rate (%)=((paw volume after carrageenan injection- paw volume before carrageenan injection)/(paw volume before carrageenan injection)×100 Formula: 1
Edematization suppression rate (%)=((edematization rate of control-
edematization rate of test samples)/edematization rate of […]

Human COX-1 = target: T1, Human COX-1 (Homo sapiens, UniProt P23219); assay: Human COX-1 Inhibitory Activity Test (TXB2 in blood); assay type: cell-based; conditions: IC50 from Hill Plot
T1 construct: endogenous in cells; host or cells: whole blood of a healthy human donor (own knowledge: TXB2 of clotting blood comes from platelet COX-1)
T1 sequence (P23219 24-599): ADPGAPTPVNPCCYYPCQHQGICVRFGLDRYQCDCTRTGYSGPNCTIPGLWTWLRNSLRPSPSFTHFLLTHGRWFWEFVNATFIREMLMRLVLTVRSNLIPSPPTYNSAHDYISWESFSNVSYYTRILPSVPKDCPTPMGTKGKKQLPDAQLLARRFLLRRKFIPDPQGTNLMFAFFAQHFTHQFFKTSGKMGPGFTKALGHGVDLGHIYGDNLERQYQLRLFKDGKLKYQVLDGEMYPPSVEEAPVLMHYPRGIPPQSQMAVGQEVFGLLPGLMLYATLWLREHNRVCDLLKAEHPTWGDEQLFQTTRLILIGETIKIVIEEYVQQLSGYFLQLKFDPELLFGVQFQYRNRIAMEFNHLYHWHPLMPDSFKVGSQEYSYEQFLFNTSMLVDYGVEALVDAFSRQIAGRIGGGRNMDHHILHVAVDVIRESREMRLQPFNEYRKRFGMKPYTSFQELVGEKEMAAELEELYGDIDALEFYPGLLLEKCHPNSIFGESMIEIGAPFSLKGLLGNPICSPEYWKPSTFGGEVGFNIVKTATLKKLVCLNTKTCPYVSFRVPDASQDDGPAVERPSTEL
Method: (§1) COX-1 and COX-2 activities were measured according to the method of Patrignani et al. (J. Pharm. Exp. Ther. Vol. 271, 1705 (1994)).
(1) COX-1 activity was measured in the following procedure. […] The serum obtained by 10 minutes of centrifugation at 2000 rpm at 4° C. was stored at -40° C. until the measurement of the amount of thromboxane B2 (TXB2). The test samples, which had been dissolved in ethanol and diluted to the specified concentrations, were previously dispensed into the glass test tubes, and the solvent was evaporated to dryness by Centrifugal Vaporizer (CVE-200D, manufactured by Tokyo Rika Mfg. Co., Ltd.) so that the test samples were added to the plasma.
(3) The measurement for the TXB2 content was conducted in the following procedure. In a part of a 96 well plate coated with anti-rabbit IgG antibody, 2 wells were allotted respectively to blank well, Non-specific Binding (NSB) well, Maximum Binding (B0) well, standard wells at 7 concentrations of TXB2 (1000 pg/ml) in doubling dilution ranging from 1000-15.6 pg/ml. The rest of the wells were used for the measurement of the samples. EIA buffer was added to the NSB wells (100 μl ) and B0 wells (50 μl), respectively. 50 μl of each of the standard dilution was added in an order from thinner to thicker concentrations. Each of the samples was added to the rest of the wells in an amount of 50 μl. Then, 50 μl of TXB2 tracer was added to each of the wells except for the blank wells. Further, 50 μl of TXB2 antibody was added to each of the wells except for the NSB wells and blank wells, then the well plate was covered with a plastic film and the reaction continued for 18 hours at room temperature. When the reaction was terminated, the wells were washed 5 times with a wash buffer. 200 μl of Elman's reagent was added to each of the wells and then the well plate was covered with a plastic film and developed for 60 minutes in a dark place. The absorbance at 405 nm was measured by an Immuno Reader (NJ-2000, manufactured by Nippon Intermed Co., Ltd.). From the measurement result, %B/B0 was calculated and, applying it to the approximation formula of Hill Plot, the concentration of the samples was determined to be 2,000 times concentration. […]

Human COX-2 = target: T2, Human COX-2 (Homo sapiens, UniProt P35354); assay: Human COX-2 Inhibitory Activity Test (LPS-induced PGE2 in blood); assay type: cell-based; conditions: for IC50: human blood, LPS, PGE2, IC50 from Hill Plot; for COX-1/COX-2: ratio of IC50 COX-1 to COX-2
T2 construct: endogenous in cells; host or cells: heparinised whole blood of a healthy human donor pretreated with aspirin, stimulated with LPS (own knowledge: COX-2 is induced in monocytes)
T2 sequence (P35354 18-604): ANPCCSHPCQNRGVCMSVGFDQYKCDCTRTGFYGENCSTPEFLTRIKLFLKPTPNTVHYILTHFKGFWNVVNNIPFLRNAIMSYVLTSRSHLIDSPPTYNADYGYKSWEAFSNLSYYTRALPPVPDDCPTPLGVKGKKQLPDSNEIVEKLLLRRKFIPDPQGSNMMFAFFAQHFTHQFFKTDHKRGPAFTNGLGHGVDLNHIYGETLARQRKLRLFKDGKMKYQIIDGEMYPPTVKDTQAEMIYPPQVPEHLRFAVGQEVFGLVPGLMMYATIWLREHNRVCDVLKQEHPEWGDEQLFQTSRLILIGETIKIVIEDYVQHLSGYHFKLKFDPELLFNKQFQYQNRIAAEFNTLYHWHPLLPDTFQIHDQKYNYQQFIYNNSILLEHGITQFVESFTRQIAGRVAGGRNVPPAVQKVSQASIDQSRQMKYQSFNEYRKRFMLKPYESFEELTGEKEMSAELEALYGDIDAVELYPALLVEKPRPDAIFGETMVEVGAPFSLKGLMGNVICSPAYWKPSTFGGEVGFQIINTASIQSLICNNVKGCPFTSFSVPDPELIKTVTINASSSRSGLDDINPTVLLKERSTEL
Method: as §1
(2) COX-2 activity was measured in the following procedure. To blood collected from a healthy normal who had taken 330 mg of aspirin 48 hours before the blood collection in order to inhibit the COX-1 activity, 10 unit/ml of sodium heparin was added, and then pipetted into glass test tubes by 1 ml. 10 μg/ml of Lipopolysaccharide (LPS) was added thereto and the plasma obtained by the specified operation was stored at -40° C. until the measurement for the amount of prostaglandin E2 (PGE2). Test samples containing the test samples were treated in the same manner of operation as described above.
(4) The measurement for the PGE2 content was conducted in the following procedure. In a part of 96 well plate coated with goat anti-mouse antibody, 2 wells were alloted respectively to a blank well, Non-specific Binding (NSB) well, Maximum Binding (B0) well, standard wells at seven concentrations of PGE2 (1000 pg/ml) in doubling dilution ranging from 1000-15.6 pg/ml. The rest of the wells were used for the sample measurement. EIA buffer was added to the NSB wells (100 μl) and to the B0 wells (50 μl), respectively. 50 μl of each of the standard dilution was added in an order from thinner to thicker concentrations. Each of the samples was added to the rest of the wells in an amount of 50 μl. Then, 50 μl of PGE2 tracer was added to each of the wells except for blank wells. Further, 50 μl PGE2 monoclonal antibody was added to each of the wells except for the NSB wells and blank wells, then the well plate was covered with a plastic film and the reaction continued at room temperature for 18 hours. When the reaction was terminated, the wells were washed 5 times with a wash buffer. 200 μl of Elman's reagent was added to each of the wells, and then the well plate was covered with a plastic film and developed for 60 minutes in a dark place. The absorbance at 405 nm was measured by an Immuno Reader (NJ-2000, manufactured by Nippon Intermed Co., Ltd.). From the measurement result, %B/B0 was calculated and, applying it to the approximation formula of Hill Plot, the concentration of the samples was determined to be 40 times concentration. The dilution was conducted with an EIA buffer throughout the Test Example 3.

| Compound | Edematization Suppression rate (carrageenan footedema) | IC50 (Human COX-1) | IC50 (Human COX-2) | COX-1/COX-2 (Human COX-2) | other results |
| --- | --- | --- | --- | --- | --- |
| CS(=O)(=O)Nc1ccc([N+](=O)[O-])cc1OC1CCCCC1 [Control Compound (c), N-(2-cyclohexyloxy-4-nitrophenyl)methanesulfonamido, reference compound] | – | – | – | – | Body temperature 1 Hour After (Brewer's Yeast Fever; 10 mg/kg oral, 1 hour after): 37.67 °C; Body temperature 3 Hours After (Brewer's Yeast Fever; 10 mg/kg oral, 3 hours after): 37.04 °C; Body temperature 5 Hours After (Brewer's Yeast Fever; 10 mg/kg oral, 5 hours after): 37.12 °C; Intrafebrile Body Temperature (Brewer's Yeast Fever; 18 hours after yeast injection, before administration, 10 mg/kg group): 38.89 °C; Basal Body Temperature (Brewer's Yeast Fever; one hour after sensor insertion, before yeast, 10 mg/kg group): 37.41 °C; threshold value fluctuation, non-inflammatory paw [1]: exerted no influence on the threshold value fluctuation with respect to the non-inflammatory paw in the same manner as control compound (c); Pain Threshold Value Fluctuation Rate ([1]; po, 3 h): -1.46%; Pain Threshold Value Rising Rate ([1]; po, 3 h): 24.0% |
| COc1ccc2c(c1)c(CC(=O)O)c(C)n2C(=O)c1ccc(Cl)cc1 [Indomethacin, reference compound] | – | – | – | – | Right Hind Paw Volume day 21 (adjuvant arthritis; day 21 (starting date of administration), once daily): 3.88 mL; Right Hind Paw Volume day 27 (adjuvant arthritis; day 27, once daily for 7 days): 2.69 mL |
| Cc1cc(-c2ccc(F)c(Cl)c2)c(-c2ccc(S(C)(=O)=O)cc2)[nH]1 [Preparation Example 10, 4-(3-chloro-4-fluorophenyl)-2-methyl-5-(4-methylsulfonylphenyl)-1H-pyrrole] | 25.7% | 84 µM | 274 nM | 307 | – |
| CSc1ccc(-c2cc(C)[nH]c2-c2ccc(S(C)(=O)=O)cc2)cc1 [Preparation Example 18, 4-(4-methylthiophenyl)-2-methyl-5-(4-methylsulfonylphenyl)-1H-pyrrole] | 48.9% | 12.6 µM | 123 nM | 102 | – |
| Cc1cccc(-c2cc(C)[nH]c2-c2ccc(S(C)(=O)=O)cc2)c1 [Preparation Example 21, 4-(3-methylphenyl)-2-methyl-5-(4-methylsulfonylphenyl)-1H-pyrrole] | 31.6% | 39.2 µM | 129 nM | 304 | – |
